Read-outs that look alike come from different tables or passages of the source.

Data set [1] concerns HepG2 cells. Particulars: human, 24 h.
Method: (§1) HepG2 cells floating in a Dulbecco's modified Eagle's medium (DMEM) containing 10% fetal bovine serum (FBS) were inoculated at a concentration of 3.5×10^4 cells/0.1 mL/well to a 96-well plate and cultured at 37° C. for approximately 24 hours in a 5% CO2 atmosphere. Then, the medium was replaced by DMEM containing iguratimod and methotrexate and containing 0.5% FBS, and the cells were further cultured therein for 24 hours. In this context, iguratimod was dissolved in a 1.12-fold molar quantity of 0.1 mol/L sodium hydroxide solution, diluted with distilled water, and then added to the culture solution. Methotrexate was dissolved in dimethyl sulfoxide (DMSO) and added to the culture solution. Test substance-free DMEM containing 0.25% DMSO and 0.5% FBS was used in a control group.
(§2) After the completion of culture, each culture supernatant was separated, and the activity of lactate dehydrogenase (LDH) released outside the cells was determined using Cytotoxicity Detection Kit (LDH) (Roche Applied Science). In order to determine LDH activity in the whole cells, 0.1 mL of DMEM containing 2% Triton X-100 and 0.5% FBS was then added to each well after the culture supernatant separation to prepare a cell lysate. The LDH activity was determined in the same way as above.
(§3) The rate of LDH release (%) was calculated according to the formula shown below and indicated by the average value of each group. Its ratio with respect to the control group was also determined. Rate of LDH release (%)=Activity in the culture supernatant/(Activity in the culture supernatant+Activity in the cell lysate)×100
Data set [2] concerns adjuvant arthritis. In words: Adjuvant-induced arthritis in rats, paw swelling of both hind legs, therapeutic dosing (Test Example 2). It is filed as in vivo, Lewis male rat. Particulars: oral once a day for 7 days from day 18, 25th day; for Swelling rate: average of both hind legs; for Inhibition rate: vs control swelling rate. As for the experimental part:
A suspension of dead Mycobacterium tuberculosis in liquid paraffin (0.6 mg/0.1 mL) was intradermally injected to the base of tail of each Lewis male rat to induce adjuvant arthritis. On the 18th day after the induction of arthritis, the paw volumes of both hind legs were measured. The rats were grouped so that the paw volumes of both hind legs averaged out per group. The test substances were separately suspended or dissolved in 0.5% aqueous methylcellulose solutions to prepare dosing solutions, which were orally administered once a day for 7 days from the grouping date. In the case of combined administration, both test substances were simultaneously administered through an oral route.
The dose of iguratimod was set to 1 mg/kg, while the dose of prednisolone was set to 5 mg/kg. Alternatively, 1 mg/kg iguratimod and 5 mg/kg prednisolone were orally administered in combination.
1 mL of 0.5% aqueous methylcellulose solution per 100 g of body weight was orally administered to a control group that received no test substance after the grouping.
On the day after the final administration (on the 25th day after the induction of arthritis), the paw volumes of both hind legs were measured for each group. Subsequently, the rats were killed by blood removal. Then, their thymus glands, spleens, and adrenal glands were extirpated, and the weights were measured to calculate the ratio of each organ weight to 100 g body weight.

Data set [3] relates to adjuvant arthritis. The data set is described as follows: Adjuvant-induced arthritis in rats, paw swelling of left hind leg (Test Example 1). It is filed as in vivo, Lewis male rat. Particulars: oral once a day for 21 days; for Swelling rate: left hind leg, 21st day after arthritis induction; for Inhibition rate: vs control swelling rate, 21st day. As for the experimental part:
A suspension of dead Mycobacterium tuberculosis in liquid paraffin (0.6 mg/0.1 mL) was intradermally injected in the plantar region of left hind paw of each Lewis male rat to induce adjuvant arthritis. The paw volumes of both hind legs were measured using a plethysmometer on a daily basis from before to after the induction of arthritis. The test substances were separately suspended or dissolved in 0.5% aqueous methylcellulose solutions to prepare dosing solutions, which were orally administered once a day for 21 days from immediately after the adjuvant injection. In the case of combined administration, both test substances were simultaneously administered.
The dose of iguratimod was set to 3 mg/kg, while the dose of methotrexate was set to 0.1 mg/kg. Alternatively, 3 mg/kg iguratimod and 0.1 mg/kg methotrexate were administered in combination.
1 mL of 0.5% aqueous methylcellulose solution per 100 g of body weight was orally administered to an untreated normal group and a control group that received no test substance after the induction of arthritis.
On the day after the final administration (on the 21st day after the induction of arthritis), the paw volume of the left hind leg was measured for each group. Subsequently, peripheral blood was collected therefrom, and the reticulocyte count was measured.

The subject of data set [4] is HepG2 cells. The data set is described as follows: Cellular damage of HepG2 cells, LDH release (Test Example 3). Particulars: iguratimod 0, HepG2, 24 hours; for Rate of LDH release: control 14.2.
Method: as §1, §2, §3

On to `CS(=O)(=O)Nc1cc2occ(NC=O)c(=O)c2cc1Oc1ccccc1` [Iguratimod, N-[7-[(methanesulfonyl)amino]-4-oxo-6-phenoxy-4H-1-benzopyran-3-yl]formamide], for which, in the data set on HepG2 cells [1] (3 μg/mL), the “Rate of LDH release” value was determined as 15.9% and the “Rate of LDH release, ratio to control group” value (“Rate of LDH release, ratio” for short) is reported as 112%. Besides, in the data set on HepG2 cells [1] (30 μg/mL), the “Rate of LDH release” value was 17.0% and the “Rate of LDH release, ratio” value amounted to 120%. Further, in the data set on adjuvant arthritis [2] (iguratimod 1 mg/kg), the Swelling rate was determined as 76% and the Inhibition rate turned out to be 28%. In the data set with adjuvant arthritis [3] (iguratimod 3 mg/kg), the Swelling rate is listed as 93% and the Inhibition rate is 40%.

In the case of `C[C@]12C=CC(=O)C=C1CC[C@@H]1[C@@H]2[C@@H](O)C[C@@]2(C)[C@H]1CC[C@]2(O)C(=O)CO` [Prednisolone, prednisolone], in the data set on adjuvant arthritis [2] (prednisolone 5 mg/kg), the Swelling rate is reported as 66% and the Inhibition rate is 37%.

For the molecule `CN(Cc1cnc2nc(N)nc(N)c2n1)c1ccc(C(=O)N[C@@H](CCC(=O)O)C(=O)O)cc1` [Methotrexate, methotrexate], in the data set with HepG2 cells [4] (methotrexate 1 μg/mL), the “Rate of LDH release, ratio” value was found to be 172% and the “Rate of LDH release” value was determined as 24.4%. Besides, in the data set on HepG2 cells [4] (methotrexate 10 μg/mL), the “Rate of LDH release, ratio” value was found to be 189% and the “Rate of LDH release” value is on record as 26.8%. Also, in the data set with adjuvant arthritis [3] (methotrexate 0.1 mg/kg), the Swelling rate came out at 114% and the Inhibition rate is 26%.

(Values after patent publication US9421186B2, “Method for improving therapy for autoimmune diseases such as rheumatoid arthritis” (priority 2012, dated 2016).)
